Experimental data from ChEMBL document CHEMBL5390231, “Development of small molecule inhibitors targeting RNA helicase DHX33 as anti-cancer agents” (Bioorg Med Chem Lett, 2023).
Active and inactive are the calls of the source. The rule behind the calls is not given here.

What was measured:
U-251 = test: Antiproliferative activity against human U-251MG cells overexpressing DHX33 assessed as inhibition of cell growth measured after 48 hrs by CCK-8 assay; assay type: functional, cell-based; details: U-251, 48 h
[1] = Microsomal stability in human liver microsome assessed as intrinsic clearance; assay type: ADME; details: liver microsomes, read-out: CLH
A549 [2] = test: Downregulation of CyclinE2 mRNA expression in human A549 cells by SYBR dye based RT-PCR analysis; assay type: functional, cell-based
[3] = target: T1, Putative pre-mRNA-splicing factor ATP-dependent RNA helicase DHX32 (Homo sapiens, UniProt Q7L7V1); test: Inhibition of N-terminal thioredoxin-tagged human recombinant DHX32 transformed in Escherichia coli BL21(DE3)pLysS cells
T1 sequence (Q7L7V1 whole entry): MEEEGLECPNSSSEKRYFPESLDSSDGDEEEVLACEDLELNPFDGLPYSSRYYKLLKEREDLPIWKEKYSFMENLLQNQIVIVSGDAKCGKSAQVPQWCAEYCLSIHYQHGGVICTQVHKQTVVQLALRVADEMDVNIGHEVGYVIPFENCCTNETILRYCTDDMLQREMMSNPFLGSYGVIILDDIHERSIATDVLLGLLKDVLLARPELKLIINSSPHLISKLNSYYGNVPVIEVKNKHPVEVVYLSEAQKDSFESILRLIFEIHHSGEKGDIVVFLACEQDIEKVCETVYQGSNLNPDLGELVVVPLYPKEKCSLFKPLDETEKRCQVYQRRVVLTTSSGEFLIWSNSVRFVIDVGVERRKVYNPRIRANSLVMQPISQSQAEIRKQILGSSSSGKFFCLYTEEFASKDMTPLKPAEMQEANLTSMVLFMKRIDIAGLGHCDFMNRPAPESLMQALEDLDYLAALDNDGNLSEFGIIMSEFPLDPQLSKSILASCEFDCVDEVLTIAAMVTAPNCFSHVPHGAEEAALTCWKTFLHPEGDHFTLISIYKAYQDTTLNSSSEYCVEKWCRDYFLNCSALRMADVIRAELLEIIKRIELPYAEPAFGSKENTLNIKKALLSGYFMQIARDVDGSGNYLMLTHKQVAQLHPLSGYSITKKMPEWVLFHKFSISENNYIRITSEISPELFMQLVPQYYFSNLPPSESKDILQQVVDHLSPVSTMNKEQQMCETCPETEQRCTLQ

A549 [4] = test: Downregulation of MCM7 mRNA expression in human A549 cells by SYBR dye based RT-PCR analysis; assay type: functional, cell-based
A549 [5] = test: Downregulation of MCM2 mRNA expression in human A549 cells by SYBR dye based RT-PCR analysis; assay type: functional, cell-based
A549 [6] = test: Downregulation of E2F1 mRNA expression in human A549 cells by SYBR dye based RT-PCR analysis; assay type: functional, cell-based
[7] = target: T2, Probable ATP-dependent RNA helicase DDX59 (Homo sapiens, UniProt Q5T1V6); test: Inhibition of C-terminal 6xHis-tagged human recombinant DDX59 transformed in Escherichia coli BL21(DE3)pLysS cells
T2 sequence (Q5T1V6 whole entry): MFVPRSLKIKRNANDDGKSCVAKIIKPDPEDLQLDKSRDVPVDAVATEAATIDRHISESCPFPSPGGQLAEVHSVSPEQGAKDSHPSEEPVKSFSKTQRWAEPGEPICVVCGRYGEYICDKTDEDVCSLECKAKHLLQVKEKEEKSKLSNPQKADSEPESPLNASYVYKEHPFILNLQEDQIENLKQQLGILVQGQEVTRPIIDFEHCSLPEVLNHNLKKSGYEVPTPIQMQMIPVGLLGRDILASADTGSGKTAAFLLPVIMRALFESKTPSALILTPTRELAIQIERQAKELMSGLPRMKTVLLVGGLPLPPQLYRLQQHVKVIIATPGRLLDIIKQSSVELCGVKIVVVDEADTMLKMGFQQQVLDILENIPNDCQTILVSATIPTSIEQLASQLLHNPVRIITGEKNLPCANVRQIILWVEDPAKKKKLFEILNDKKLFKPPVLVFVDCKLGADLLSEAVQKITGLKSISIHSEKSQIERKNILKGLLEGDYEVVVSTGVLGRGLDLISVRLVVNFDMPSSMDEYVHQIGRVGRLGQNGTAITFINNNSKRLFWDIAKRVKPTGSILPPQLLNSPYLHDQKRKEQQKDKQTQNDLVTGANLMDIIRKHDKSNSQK

A549 [8] = test: Downregulation of FEN1 mRNA expression in human A549 cells by SYBR dye based RT-PCR analysis; assay type: functional, cell-based
A549 [9] = test: Downregulation of MCM4 mRNA expression in human A549 cells by SYBR dye based RT-PCR analysis; assay type: functional, cell-based
A549 [10] = test: Downregulation of CyclinB2 mRNA expression in human A549 cells by SYBR dye based RT-PCR analysis; assay type: functional, cell-based
A549 [11] = test: Downregulation of MCM3 mRNA expression in human A549 cells by SYBR dye based RT-PCR analysis; assay type: functional, cell-based
[12] = target: T3, ATP-dependent RNA helicase DHX33 (Mus musculus, UniProt Q80VY9); test: Inhibition of N-terminal/C-terminal 6x His-tagged wild type recombinant mouse DHX33 transformed in Escherichia coli BL21(DE3)pLysS cells
T3 sequence (Q80VY9 whole entry): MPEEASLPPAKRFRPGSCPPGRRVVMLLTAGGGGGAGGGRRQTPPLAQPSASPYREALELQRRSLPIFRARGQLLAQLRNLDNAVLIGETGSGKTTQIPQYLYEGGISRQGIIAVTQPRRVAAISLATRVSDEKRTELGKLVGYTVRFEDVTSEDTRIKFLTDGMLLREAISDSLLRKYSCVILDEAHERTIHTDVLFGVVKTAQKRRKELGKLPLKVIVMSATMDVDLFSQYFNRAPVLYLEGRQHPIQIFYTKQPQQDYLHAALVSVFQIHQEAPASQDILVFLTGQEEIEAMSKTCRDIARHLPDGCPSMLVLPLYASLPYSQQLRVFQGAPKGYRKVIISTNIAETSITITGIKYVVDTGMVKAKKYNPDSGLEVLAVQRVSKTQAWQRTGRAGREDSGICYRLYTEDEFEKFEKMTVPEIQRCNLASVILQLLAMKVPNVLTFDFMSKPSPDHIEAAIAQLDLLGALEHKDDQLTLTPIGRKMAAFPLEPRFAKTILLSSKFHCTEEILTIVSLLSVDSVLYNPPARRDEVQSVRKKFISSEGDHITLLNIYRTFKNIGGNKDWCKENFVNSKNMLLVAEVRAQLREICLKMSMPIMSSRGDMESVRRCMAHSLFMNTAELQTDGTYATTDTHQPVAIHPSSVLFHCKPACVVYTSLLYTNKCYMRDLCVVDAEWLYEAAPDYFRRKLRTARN

[13] = target: T4, Probable ATP-dependent RNA helicase DDX6 (Homo sapiens, UniProt P26196); test: Inhibition of N-terminal thioredoxin-tagged human recombinant DDX6 transformed in Escherichia coli BL21(DE3)pLysS cells
T4 sequence (P26196 whole entry): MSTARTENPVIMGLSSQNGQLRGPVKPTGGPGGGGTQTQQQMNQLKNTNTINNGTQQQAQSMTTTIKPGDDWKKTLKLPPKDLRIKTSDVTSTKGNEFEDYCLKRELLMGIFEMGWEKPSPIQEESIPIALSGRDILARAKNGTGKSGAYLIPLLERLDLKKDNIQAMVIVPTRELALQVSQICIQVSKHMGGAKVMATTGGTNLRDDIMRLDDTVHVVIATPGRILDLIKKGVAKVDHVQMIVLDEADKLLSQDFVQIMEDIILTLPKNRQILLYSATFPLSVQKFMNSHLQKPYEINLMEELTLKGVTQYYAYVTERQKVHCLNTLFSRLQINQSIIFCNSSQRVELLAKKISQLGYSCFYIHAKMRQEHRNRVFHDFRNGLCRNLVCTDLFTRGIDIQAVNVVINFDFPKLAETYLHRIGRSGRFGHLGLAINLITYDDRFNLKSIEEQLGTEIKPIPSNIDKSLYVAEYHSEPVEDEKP

| Compound | IC50 (U-251) | also measured |
| --- | --- | --- |
| COc1cncc2nc(/C(C#N)=C/c3cc(C)n(-c4sc(C)c(C)c4C#N)c3C)[nH]c12 | 4.68 µM |  |
| COc1cc2nc(/C(C#N)=C/c3cc(C)n(-c4sc(C)c(C)c4C#N)c3C)[nH]c2cn1 | 0.03 µM |  |
| COc1ccc2nc(/C(C#N)=C/c3cc(C)n(-c4sc(C)cc4C#N)c3C)[nH]c2c1 | 0.11 µM | CLint scaled [1]: 290 mL/min/kg |
| COc1cccc2nc(/C(C#N)=C/c3cc(C)n(-c4oc(C)c(C)c4C#N)c3C)[nH]c12 | > 10 µM |  |
| COc1cc2nc(/C(C#N)=C/c3cc(C)n(-c4oc(C)c(C)c4C#N)c3C)[nH]c2cn1 | 0.07 µM |  |
| COc1ccc2nc(/C(C#N)=C/c3cc(C)n(-c4oc(C)c(C)c4C#N)c3C)[nH]c2c1 | 0.54 µM |  |
| Cc1ccc2nc(/C(C#N)=C/c3cc(C)n(-c4oc(C)c(C)c4C#N)c3C)[nH]c2c1 | 2.44 µM |  |
| COc1cc2nc(/C(C#N)=C/c3cc(C)n(-c4sc(C)cc4C#N)c3C)[nH]c2cn1 | 0.02 µM | CLint scaled [1]: 187 mL/min/kg |
| Cc1oc(-n2c(C)cc(/C=C(\C#N)c3nc4ccccc4[nH]3)c2C)c(C#N)c1C | 7.82 µM | Activity (A549 [2]): Active; IC50 [3]: > 5 µM; Activity (A549 [4]): Active; Activity (A549 [5]): Active; Activity (A549 [6]): Active; IC50 [7]: > 5 µM; Activity (A549 [8]): Active; Activity (A549 [9]): Active; Activity (A549 [10]): Active; Activity (A549 [11]): Active; IC50 [12]: 0.52 µM; IC50 [13]: > 4 µM |
| COc1nccc2nc(/C(C#N)=C/c3cc(C)n(-c4sc(C)c(C)c4C#N)c3C)[nH]c12 | 3.97 µM |  |
| COc1cc2nc(/C(C#N)=C/c3cc(C)n(-c4sc(C)cc4C(N)=O)c3C)[nH]c2cn1 | 0.18 µM | CLint scaled [1]: 140 mL/min/kg |
| COc1ccc2nc(/C(C#N)=C/c3cc(C)n(-c4oc(C)c(C)c4C#N)c3C)[nH]c2n1 | 4.08 µM |  |
| Cc1oc(-n2c(C)cc(/C=C(\C#N)c3nc4ccc(F)cc4[nH]3)c2C)c(C#N)c1C | 3.2 µM |  |
| COc1ccc2nc(NC(=O)c3cc(C)n(-c4oc(C)nc4C#N)c3C)[nH]c2c1 | 0.07 µM |  |
| COc1cc2nc(/C(C#N)=C/c3cc(C)n(-c4oc(C)c(C)c4C#N)c3C)[nH]c2cc1OC | 1.54 µM |  |
